Assay results: patent publication US20080004235A1, “TOPICAL COMPOSITIONS COMPRISING ONE OR MORE OF 4-THIOURIDINE, ISOMALTITOL AND URIDINE” (priority 2005, published 2008)

Legend:
[1] = cited from earlier work
rats = conditions: rat, in vivo; cited from earlier work
skin = assay: Preliminary safety evaluation of topical exposure (SLS or UVB provoked skin), methodological study on humans; assay type: in vivo, human
Text: Skin irritation and dermatitis is a common problem among health care professionals due to frequent washing. We have utilized two well-established skin irritation models to investigate the effect of topically administered uridine or isomalt on skin physiology including measurement of dermal blood flow. Isomalt consists of 1,6-glucopyranosyl-D-sorbitol (GPS, isomaltitol) and 1,1-glucopyranosyl-D-mannitol (GPM) in a 1:1 ratio. The methodological study involves the study of various physiological parameters, such as dermal blood flow and visual assessment of erythema, subsequent to provocation by either exposure to UVB light or Sodium Lauryl Sulphate (SLS) and the effects of isomalt and uridine on these parameters. Only a very small area of the skin was exposed to the irritants UVB or SLS. The methodological study has been approved by the Medical Products Agency, Sweden and the Regional Ethical Review Board, Linköping, Sweden.
UVB provocation with a divergent beam produces a circular, radially fading skin erythema, the diameter of which corresponds to the minimal erythemal dose. […] SLS, which is a detergent, creates a local skin irritation mainly by disturbing the skins barrier function. A methodological study has been performed, both to evaluate the effects of uridine or isomalt on skin UVB-induced erythema and SLS irritation. […]

OC[C@H](O)[C@@H](O)[C@H](O)[C@H](O)CO[C@H]1O[C@H](CO)[C@@H](O)[C@H](O)[C@H]1O [isomaltitol, 6-O-α-D-glucopyranosyl-D-sorbitol]
rise in blood glucose and insulin levels ([1]; compared to sugars and other carbohydrates): only a very small rise | absorption ([1]; in vivo): very slow and limited | toxic effect (rats): doesn't seem to have any toxic effect

O=c1ccn([C@@H]2O[C@H](CO)[C@@H](O)[C@H]2O)c(=O)[nH]1 [uridine]
untoward effects such as exacerbated skin irritation or itching related to the exposure (skin; saturated solution, topical exposure for 24 hours, all individuals): no untoward effects

isomalt
untoward effects such as exacerbated skin irritation or itching related to the exposure (skin; in vivo): no untoward effects
